Experimental data published in article PMC11372839, “Unraveling the Potential of Vitamin B3-Derived Salts with a Salicylate Anion as Dermal Active Agents for Acne Treatment” (Molecular Pharmaceutics, 2024).
Values after ≈ are worked out from the molar mass of the structure shown. Values joined by “and” are separate entries in the source; they are usually repeats but may differ in a detail not shown here. Equal entries are not always repeated. Where two headings read alike, the source gives them in different places.

Legend:
[1] = Contact angle of aqueous solutions, sessile drop method on paraffin; type: physicochemical; conditions: aqueous solution, 25 °C
Description: The contact angle (CA) measurements were carried out using a DSA100S analyzer (Krüss, Germany, accuracy ±0.1°), at 25 °C. The determination of the contact angle was based on the sessile drop method, i.e., drops of the analyzed solution were deposited on a solid surface (paraffin). The images of the drops were taken with a CCD camera, digitized, and evaluated using Young–Laplace fitting. The CA was determined as the slope of the tangent line at the contact point between the 3 phases (solution, paraffin surface, and air).
In the case of seborrheic skin, which occurs among many people affected by acne, the epidermis is covered by a hydrophobic lipid layer, which impedes the penetration of active substances, especially those that are well soluble in water. In addition, ensuring proper drug absorption through the skin can also reduce the risk of side effects and increase the effectiveness of therapy.[72] The addition of surfactants, which improve the wettability of hydrophobic surfaces, can be a solution to this problem.[73],[74] […] Wettability analyses of aqueous solutions of the new APIs were carried out on paraffin, whose hydrophobicity is similar to that of the human skin.[75] Experiments were performed at concentrations corresponding to common NA and SAL contents in commercial formulations (0.25–1.00%).[67],[76],[77] Due to low solubilities of 5–7, tests for these salts were performed at concentrations of 0.25, 0.03, and 0.01%, respectively (please see Figure S43 in the Supporting Information).

[2] = Octanol–water partition coefficient, shake-flask method (OECD Test No. 107); type: physicochemical
Description: The octanol–water partition coefficients (KOW) of the synthesized products were estimated by the shake-flask method according to the OECD Test No. 107 guidelines (Partition Coefficient n-Octanol/Water: Shake-Flask Method). Measurements were performed using mutually saturated distilled water and 1-octanol in a glass vial containing a magnetic stir bar. First, the synthesized products were dissolved in distilled water (or 1-octanol) at a chosen concentration (0.01 mol per 1 L of octanol or water), and then proper amounts of the second solvent (octanol or water) were added. Subsequently, two duplicate runs were carried out with different solvent ratios: 4 mL of 1-octanol and 2 mL of water (2:1), 4 mL of 1-octanol and 4 mL of water (1:1), and 4 mL of 1-octanol and 8 mL of water ([…]). All vials were shaken at a constant temperature of 25 °C. After 24 h, all samples were centrifuged and the aqueous and octanolic phases were collected with a syringe. The concentrations of compounds in water were determined spectrophotometrically using a Rayleigh UV-1601 spectrophotometer (Beijing Beifen-Ruili Analytical, China) based on calibration curves made previously (at λmax = 262 nm) vs concentration for each substance. Two repetitions of each measurement were performed in a specific solvent ratio (1:1, 1:2, and 2:1). Finally, the log KOW was calculated as the average of six results collected for each compound.
The outermost layer of the skin (stratum corneum) contains around […] water, a relatively low amount compared to the rest of the human body. Given the hydrophobic nature of 1-octanol, it can be used as a simplified model for the stratum corneum.[50] The octanol–water partition coefficient (KOW) value represents the proportion between the concentrations of a substance in both liquid phases of a system composed of water and 1-octanol. […] The log KOW values are given in Figure 6 (exact values are provided in Table S4, Supporting Information).

[3] = tested on: Staphylococcus epidermidis; assay: MIC and MBC determination, microdilution method; type: cell-based; conditions: for MIC: 18 h, read-out: MIC, S. epidermidis; for MBC: read-out: MBC, S. epidermidis
Description: (§1) The antimicrobial activities of the compounds were tested against clinical strains of an aerobic Gram-negative bacterium—Pseudomonas aeruginosa (P. aeruginosa), facultative anaerobic Gram-positive bacteria—Staphylococcus aureus (S. aureus) and Staphylococcus epidermidis (S. epidermidis), anaerobic Gram-positive bacterium—Cutibacterium acnes (C. acnes), and yeast-like fungus—Candida albicans (C. albicans).
(§2) Aerobic and facultative anaerobic bacteria cultures were grown in Brain Heart Infusion broth (BHI, bioMerieux, France) at 35 °C ± 1 °C for 18 h, C. acnes cultures were grown in thioglycolate broth with resazurin (TGB, bioMerieux, France) at 35 ± 1 °C for 48 h, and yeast cultures were grown in Sabouraud dextrose broth (SDB, Merck, Germany) at 35 ± 1 °C for 24 h. After incubation, each culture was diluted in a suitable liquid medium: P. aeruginosa, S. aureus, and S. epidermidis—Mueller–Hinton broth (MHB; Oxoid, UK); C. acnes—TGB; and C. albicans—SDB, to obtain a final suspension containing about 10^6 CFU/mL.
(§3) The microdilution method was employed to determine the compounds’ MIC (Minimal Inhibitory Concentration) and MBC/MFC (Minimal Bactericidal Concentration/Minimal Fungicidal Concentration) against the tested bacterial and fungal strains.
(§4) The compounds were serially diluted (2-fold) in the respective media (P. aeruginosa, S. aureus, and S. epidermidis—MHB, C. acnes—TGB, and C. albicans—SDB in 96-well plates), and the microbial suspensions were added. The compounds were tested in the final concentration range of 4 096 to 0.125 μg/mL, and the final microbial inoculum was approximately 5 ×10^5 CFU/mL. The tests were incubated at 35 °C ± 1 °C for 18 h (P. aeruginosa, S. aureus, and S. epidermidis) or 24 h (C. albicans) or 48 h (C. acnes). C. acnes was incubated in an anaerobic atmosphere using a GENbag anaer (bioMerieux, France). Media (without the strains) added to the different concentrations of tested compounds and media inoculated with microbial suspension were used as a negative control and growth control, respectively.
(§5) The MIC was defined as the lowest concentration at which visible growth was inhibited. MBC and MFC concentrations were determined as an extension of the MIC test. […] The plates were incubated at 35 ± 1 °C for 18–72 h. C. acnes was incubated in an anaerobic atmosphere. The MBC/MFC was defined as the lowest concentration at which no growth was observed. All tests were performed in duplicate.

Staphylococcus aureus = assay: MIC and MBC determination, microdilution method; type: cell-based; conditions: for MIC: 18 h, read-out: MIC, S. aureus; for MBC: read-out: MBC, S. aureus
Description: as §1, §2, §3, §4, §5

Solubility in PBS = conditions: for Solubility in PBS, Class: Pharmacopeia solubility class, PBS pH 7.4, 25 °C
Description: The solubility in PBS solution was determined by placing 1 g (±0.0001) of tested compound in a round-bottom flask and adding specific parts of the PBS solution in portions until full dissolution. The samples were vigorously stirred for at least 5 min before the addition of the next portion of PBS, and the systems were thermostated at 25 °C. Three repetitions of the measurement were performed for each of the compounds.
Most studies on the solubility of novel APIs are carried out with pure water, aqueous PBS solutions were much more preferred due to their higher similarity to intra- and intercellular media in epidermis, while envisaging their use in transdermal delivery and skin care applications.[60] […] The collected data are presented in Figure 8 (as well as in Table S6 in the Supporting Information).

[4] = shake-flask, 25 °C, 24 h, average of six results, read-out: Octanol-water partition coefficient (log Kow)
[5] = volume of PBS (pH 7.4) to dissolve 1 g, 25 °C
[6] = clinical strain, tested 4 096 to 0.125 μg/mL, b = out of range

With `CCCCCCCCCC[n+]1cccc(C(N)=O)c1.O=C([O-])c1ccccc1O` [compound 5] the Contact angle ([1]; concentration 0.25%) was 50.7 °, the logP at 24 h [2, 4] was 0.59 and the MIC [3] was 256 µg/mL. For the same compound, the MBC [3] was 256 µg/mL, the MIC (Staphylococcus aureus) was 256 µg/mL and the MBC (Staphylococcus aureus) was 256 µg/mL. For the same compound, the “Solubility in PBS, Class” value (Solubility in PBS) was “Slightly Soluble (100-1000)” and the “Solubility in PBS, PBS [ml]” value (Solubility in PBS; [5]) was 100 to 1000 mL.
For `CCCCCCCC[n+]1cccc(C(N)=O)c1.O=C([O-])c1ccccc1O` [compound 4], the Contact angle ([1]; concentration 0.25%) was 94.1 ° and 94 °, the Contact angle ([1]; concentration 0.50%) was 79.0 ° and the Contact angle ([1]; concentration 1.00%) was 61.2 ° and 61 °. The logP at 24 h [2, 4] was 0.07, the MIC [3] was 2050 µg/mL and the MIC (Staphylococcus aureus) was 1020 µg/mL. For the same compound, the “Solubility in PBS, Class” value (Solubility in PBS) was “Soluble (10-30)” and the “Solubility in PBS, PBS [ml]” value (Solubility in PBS; [5]) was 10 to 30 mL.
For `O=C(O)c1ccccc1O` [SAL, salicylic acid, reference compound], the Contact angle ([1]; concentration 0.25%) was 104.9 °, the logP at 24 h [2] was 1.82 and the MIC [3, 6] was 1020 µg/mL (≈ 7.41 mM). For the same compound, the MBC [3, 6] was 1020 µg/mL (≈ 7.41 mM), the MIC (Staphylococcus aureus; [6]) was 1020 µg/mL (≈ 7.41 mM) and the MBC (Staphylococcus aureus; [6]) was 1020 µg/mL (≈ 7.41 mM). For the same compound, the “Solubility in PBS, PBS [ml]” value (Solubility in PBS; pH 7.4) was 100 to 1000 mL.
In the case of `CCCCCC[n+]1cccc(C(N)=O)c1.O=C([O-])c1ccccc1O` [compound 3], the Contact angle ([1]; concentration 0.25%) was 107.0 °, the Contact angle ([1]; concentration 0.50%) was 103.4 ° and the Contact angle ([1]; concentration 1.00%) was 98.51 °. It also gave a logP at 24 h [2, 4] of -0.18, an MIC [3] of 4100 µg/mL and an MIC (Staphylococcus aureus) of 2050 µg/mL. The “Solubility in PBS, Class” value (Solubility in PBS) was “Very Soluble (<1)” and the “Solubility in PBS, PBS [ml]” value (Solubility in PBS; [5]) was under 1 mL.
